Laboratory results taken from paper PMC10657444, “Design and evaluation of tadpole-like conformational antimicrobial peptides” (Communications Biology, 2023).
Values after ≈ are worked out from the molar mass of the structure shown. Values joined by “and” are separate entries in the source; they are usually repeats but may differ in a detail not shown here. Identical values can stand only once. Non-standard residues stand in square brackets, D forms with d. Residues, ends and D or L forms follow the SMILES beside them.

Experiments:
MRSA = assay type: cell-based, Staphylococcus aureus
Text: (§1) Bacteria were cultivated in Luria-Bertani (LB) broth.

S. aureus ATCC 25923 = test: Time-kill assay (growth curve, OD600); assay type: cell-based, Staphylococcus aureus; conditions: 16 × MIC
Protocol: Tube was inoculated (5 × 10^6 CFU/mL) with S. aureus ATCC 25923 and incubated at 37°C under shaking. Bacterial concentration was measured at each time point (0, 1, 2, 2.5, 3, 3.5, 4, 5, 6 and 7 h) by measuring absorbance at 600 nm with a microplate reader.

MRSA USA 300 = test: Membrane permeability, SYTOX Green; assay type: cell-based, Staphylococcus aureus; conditions: for time to maximum SYTOX Green fluorescence intensity: different concentrations
Protocol: Fluorescent probe SYTOX^TM Green (Invitrogen/ Life Technologies, S7020) was used to analyze the effect of HT2 and RI-HT2 on membrane permeability of MRSA USA 300 and K. pneumoniae ATCC 700603 as described elsewhere. SYTOX^TM Green is a DNA binding dye that is fluorescent when bound to nucleic acids and only enters cells with compromised plasma membranes. MRSA USA 300 and K. pneumoniae ATCC 700603 were cultured in LB broth to mid log phase at 37 °C and washed with PBS and resuspended (OD595 ≈ 0.1) in the same buffer. SYTOX^TM Green was added into the cell suspension with a final concentration of 5 μM and being kept in dark for 20 min. 98 µL pre-treated cell suspension was transferred into wells of 96-well glass black plates. Then, 2 µL of compound or DMSO were added to initiate the reaction. The final concentrations of HT2 and RI-HT2 were 1 ×, 2 ×, 4 × and 8 × MIC. Fluorescence strength was measured with excitation/emission wavelength of 485/528 nm every 5 min for 60 min.

[1] = tested on: K. pneumoniae ATCC 700603; test: Scanning electron microscopy; assay type: cell-based, Klebsiella pneumoniae; conditions: 2 × MIC, 60 min
Protocol: Mid-log phase bacteria (MRSA USA 300 and K. pneumoniae ATCC 700603) grown in LB broth were adjusted to a density of 5 × 10^6 CFU/mL. […] All samples were centrifuged at 8000 rpm for 5 min, washed and then resuspended in PBS. Bacterial cells were fixed with 2.5% glutaraldehyde, and then incubated at 37°C on a glass slide for 20 min. Samples were dehydrated by passing through gradient ethanol (10%, 30%, 50%, 70%, 90%, and 100%) for 5 min at each concentration. Slides were dried with an automatic critical point drying instrument (Leica EM CPD300), and a small amount of gold was sputtered onto the samples using a sputter coater system to avoid charging in the microscope. Finally, the bacteria were visualized under a field-emission scanning electron microscopy (FESEM) device (Sirion 200).

[2] = tested on: Gram-negative bacterial strains; assay type: cell-based; conditions: A. baumannii and Klebsiella pneumoniae
Text: as §1

A. baumannii 1318 = assay type: cell-based, Acinetobacter baumannii
Text: as §1

A. baumannii 1337 = assay type: cell-based, Acinetobacter baumannii
Text: as §1

K. pneumoniae 3026 = assay type: cell-based, Klebsiella pneumoniae
Text: as §1

CC[C@H](C)[C@H](NC(=O)[C@H](CCCNC(=N)N)NC(=O)[C@H](CCCNC(=N)N)NC(=O)[C@H](CC(C)C)NC(=O)[C@H](Cc1ccccc1)NC(=O)[C@@H](N)CCCNC(=N)N)C(=O)N[C@@H](Cc1ccccc1)C(=O)N[C@@H](Cc1ccccc1)C(=O)N[C@@H](Cc1ccccc1)C(=O)N[C@@H](Cc1ccccc1)C(N)=O [HT2] (H-RFLRRIFFFF-NH2)
MICs against Gram-positive bacterial strains (MRSA): 1.57 to 3.13 µM
time to complete inhibition of bacterial growth (S. aureus ATCC 25923): 1 h
OD600, growth curve (SI Fig 2) (S. aureus ATCC 25923; 0 h): 0.056 and 0.082 and 0.062
OD600, growth curve (SI Fig 2) (S. aureus ATCC 25923; 1 h): 0.082 and 0.091 and 0.066
OD600, growth curve (SI Fig 2) (S. aureus ATCC 25923; 2 h): 0.069 and 0.072 and 0.06
OD600, growth curve (SI Fig 2) (S. aureus ATCC 25923; 2.5 h): 0.061 and 0.073 and 0.063
OD600, growth curve (SI Fig 2) (S. aureus ATCC 25923; 3 h): 0.083 and 0.086 and 0.085
OD600, growth curve (SI Fig 2) (S. aureus ATCC 25923; 3.5 h): 0.066 and 0.069 and 0.083
OD600, growth curve (SI Fig 2) (S. aureus ATCC 25923; 4 h): 0.073 and 0.083 and 0.077
OD600, growth curve (SI Fig 2) (S. aureus ATCC 25923; 5 h): 0.07 and 0.073 and 0.058
OD600, growth curve (SI Fig 2) (S. aureus ATCC 25923; 6 h): 0.08 and 0.081 and 0.078
OD600, growth curve (SI Fig 2) (S. aureus ATCC 25923; 7 h): 0.077 and 0.084 and 0.075
Fluorescence intensity (MRSA USA 300; 2 × MIC, time 25 min): 31855 and 32475 and 30920
Fluorescence intensity (MRSA USA 300; 2 × MIC, time 30 min): 32738 and 33363 and 31902
Fluorescence intensity (MRSA USA 300; 2 × MIC, time 35 min): 33433 and 34141 and 32365
Fluorescence intensity (MRSA USA 300; 2 × MIC, time 40 min): 33952 and 34791 and 32993
Fluorescence intensity (MRSA USA 300; 2 × MIC, time 45 min): 34234 and 35153 and 33304
Fluorescence intensity (MRSA USA 300; 2 × MIC, time 50 min): 34616 and 35530 and 33726
Fluorescence intensity (MRSA USA 300; 2 × MIC, time 55 min): 35021 and 36015 and 33983
Fluorescence intensity (MRSA USA 300; 2 × MIC, time 60 min): 35210 and 36080 and 33852
Fluorescence intensity (MRSA USA 300; 4 × MIC, time 25 min): 58334 and 57993 and 60104
Fluorescence intensity (MRSA USA 300; 4 × MIC, time 30 min): 59686 and 59179 and 61418
Fluorescence intensity (MRSA USA 300; 4 × MIC, time 35 min): 60470 and 60307 and 62172
Fluorescence intensity (MRSA USA 300; 4 × MIC, time 40 min): 61373 and 61097 and 62778
Fluorescence intensity (MRSA USA 300; 4 × MIC, time 45 min): 61952 and 61758 and 63164
Fluorescence intensity (MRSA USA 300; 4 × MIC, time 50 min): 62152 and 62388 and 63395
Fluorescence intensity (MRSA USA 300; 4 × MIC, time 55 min): 62374 and 62948 and 63676
Fluorescence intensity (MRSA USA 300; 4 × MIC, time 60 min): 62761 and 62954 and 64070
Fluorescence intensity (MRSA USA 300; 8 × MIC, time 0 min): 1486
Fluorescence intensity (MRSA USA 300; 8 × MIC, time 25 min): 61022 and 63005 and 63531
Fluorescence intensity (MRSA USA 300; 8 × MIC, time 30 min): 61916 and 63588 and 64175
Fluorescence intensity (MRSA USA 300; 8 × MIC, time 35 min): 62425 and 64473 and 64696
Fluorescence intensity (MRSA USA 300; 8 × MIC, time 40 min): 62708 and 64561 and 64714
Fluorescence intensity (MRSA USA 300; 8 × MIC, time 45 min): 62984 and 64891 and 65072
Fluorescence intensity (MRSA USA 300; 8 × MIC, time 50 min): 63293 and 64293 and 63594
Fluorescence intensity (MRSA USA 300; 8 × MIC, time 55 min): 63589 and 64553 and 65531
Fluorescence intensity (MRSA USA 300; 8 × MIC, time 60 min): 63666 and 65987 and 65753
Fluorescence intensity (MRSA USA 300; MIC, time 0 min): 1304 and 1201 and 1387
Fluorescence intensity (MRSA USA 300; MIC, time 25 min): 17216 and 17215 and 16315
Fluorescence intensity (MRSA USA 300; MIC, time 30 min): 17367 and 17359 and 16618
Fluorescence intensity (MRSA USA 300; MIC, time 35 min): 17590 and 17525 and 16584
Fluorescence intensity (MRSA USA 300; MIC, time 40 min): 17600 and 17633 and 16680
Fluorescence intensity (MRSA USA 300; MIC, time 45 min): 17644 and 17567 and 16788
Fluorescence intensity (MRSA USA 300; MIC, time 50 min): 17792 and 17686 and 16728
Fluorescence intensity (MRSA USA 300; MIC, time 55 min): 17738 and 17641 and 16766
Fluorescence intensity (MRSA USA 300; MIC, time 60 min): 17754 and 17734 and 16661
time to maximum SYTOX Green fluorescence intensity (MRSA USA 300): ≤ 10 min
cell surface morphology by SEM (in words) [1]: rough, shrunken, wrinkled and partially damaged
MICs against Gram-negative bacterial strains, such as A. baumannii and Klebsiella pneumoniae [2]: 6.25 µM

CC[C@@H](C)[C@@H](NC(=O)[C@@H](Cc1ccccc1)NC(=O)[C@@H](Cc1ccccc1)NC(=O)[C@@H](Cc1ccccc1)NC(=O)[C@H](N)Cc1ccccc1)C(=O)N[C@H](CCCNC(=N)N)C(=O)N[C@H](CCCNC(=N)N)C(=O)N[C@H](CC(C)C)C(=O)N[C@H](Cc1ccccc1)C(=O)N[C@H](CCCNC(=N)N)C(N)=O [RI-HT2] (H-[dF][dF][dF][dF][dI][dR][dR][dL][dF][dR]-NH2; N-terminus assumed)
MIC Gram- A. b 1318 (A. baumannii 1318): 3.13 µM (≈ 4.53 µg/mL)
MIC Gram- A. b 1337 (A. baumannii 1337): 3.13 µM (≈ 4.53 µg/mL)
MIC Gram- K. p 3026 (K. pneumoniae 3026): 3.13 µM (≈ 4.53 µg/mL)
Fluorescence intensity (MRSA USA 300; 2 × MIC, time 0 min): 1131 and 1217 and 1235
Fluorescence intensity (MRSA USA 300; 2 × MIC, time 5 min): 20197 and 21230 and 20865
Fluorescence intensity (MRSA USA 300; 2 × MIC, time 10 min): 25460 and 25912 and 25261
Fluorescence intensity (MRSA USA 300; 2 × MIC, time 15 min): 28346 and 28832 and 27920
Fluorescence intensity (MRSA USA 300; 2 × MIC, time 20 min): 30460 and 31033 and 29642
Fluorescence intensity (MRSA USA 300; 2 × MIC, time 25 min): 31855 and 32475 and 30920
Fluorescence intensity (MRSA USA 300; 2 × MIC, time 30 min): 32738 and 33363 and 31902
Fluorescence intensity (MRSA USA 300; 2 × MIC, time 35 min): 33433 and 34141 and 32365
Fluorescence intensity (MRSA USA 300; 4 × MIC, time 0 min): 1186 and 1404 and 1281
Fluorescence intensity (MRSA USA 300; 4 × MIC, time 5 min): 40226 and 40219 and 41612
Fluorescence intensity (MRSA USA 300; 4 × MIC, time 10 min): 48704 and 48472 and 50316
Fluorescence intensity (MRSA USA 300; 4 × MIC, time 15 min): 53321 and 53163 and 55112
Fluorescence intensity (MRSA USA 300; 4 × MIC, time 20 min): 56328 and 55931 and 58102
Fluorescence intensity (MRSA USA 300; 4 × MIC, time 25 min): 58334 and 57993 and 60104
Fluorescence intensity (MRSA USA 300; 4 × MIC, time 30 min): 59686 and 59179 and 61418
Fluorescence intensity (MRSA USA 300; 4 × MIC, time 35 min): 60470 and 60307 and 62172
Fluorescence intensity (MRSA USA 300; 8 × MIC, time 0 min): 1486 and 1674 and 1277
Fluorescence intensity (MRSA USA 300; 8 × MIC, time 5 min): 46924 and 49356 and 49374
Fluorescence intensity (MRSA USA 300; 8 × MIC, time 10 min): 54383 and 56666 and 56984
Fluorescence intensity (MRSA USA 300; 8 × MIC, time 15 min): 57832 and 59952 and 60652
Fluorescence intensity (MRSA USA 300; 8 × MIC, time 20 min): 59829 and 61957 and 62485
Fluorescence intensity (MRSA USA 300; 8 × MIC, time 25 min): 61022 and 63005 and 63531
Fluorescence intensity (MRSA USA 300; 8 × MIC, time 30 min): 61916 and 63588 and 64175
Fluorescence intensity (MRSA USA 300; 8 × MIC, time 35 min): 62425 and 64473 and 64696
Fluorescence intensity (MRSA USA 300; 8 × MIC, time 40 min): 62708
Fluorescence intensity (MRSA USA 300; MIC, time 0 min): 1304 and 1201 and 1387
Fluorescence intensity (MRSA USA 300; MIC, time 5 min): 12522 and 12645 and 12185
Fluorescence intensity (MRSA USA 300; MIC, time 10 min): 14676 and 14962 and 14128
Fluorescence intensity (MRSA USA 300; MIC, time 15 min): 16119 and 16290 and 15431
Fluorescence intensity (MRSA USA 300; MIC, time 20 min): 16841 and 16805 and 16042
Fluorescence intensity (MRSA USA 300; MIC, time 25 min): 17216 and 17215 and 16315
Fluorescence intensity (MRSA USA 300; MIC, time 30 min): 17367 and 17359 and 16618
Fluorescence intensity (MRSA USA 300; MIC, time 35 min): 17590 and 17525 and 16584
Fluorescence intensity (MRSA USA 300; MIC, time 40 min): 17600 and 17633 and 16680
time to maximum SYTOX Green fluorescence intensity (MRSA USA 300): ≤ 15 min
cell surface morphology by SEM (in words) [1]: rough, shrunken, wrinkled and partially damaged
